Test results: US20240246959A1, “BENZIMIDAZOLE DERIVATIVE AND PREPARATION METHOD THEREFOR AND MEDICAL USE THEREOF” (Shenzhen Salubris Pharmaceuticals Co., Ltd., priority 2020, published 2024)
pEC50, pIC50: −log10 of the molar value.

Columns and labels:
[1] = Pharmacokinetic study on rat; type: in vivo, SD rats; conditions: for F: 5 mg/kg p.o vs 1 mg/kg i.v; for AUC(0-t) / Cmax / clearance / half-life: male, Sprague-Dawley (SD), plasma
From the text: • SD rats: male, 180-250 g, purchased from Beijing Vital River Laboratory Animal Technology Co., Ltd. • Reagents: DMSO (dimethyl sulfoxide), PEG-400 (polyethylene glycol 400), physiological saline, heparin, acetonitrile, formic acid, and propranolol (internal standard), all of which are commercially available. • Instruments: Thermo Fisher Scientific LC-MS (U300 UPLC, TSQ QUANTUMN ULTRA triple quadrupole mass spectrometer).
A compound was weighed and dissolved in a DMSO-PEG-400-physiological saline (5:60:35, v/v/v) system. After the rats were administered with the compound intravenously or by gavage, 200 μL of venous blood samples were collected at 15 min, 30 min, 1 h, 2 h, 5 h, 7 h, and 24 h (for i.v. group an additional collection was performed at 5 min) in heparinized EP tubes respectively, which were centrifuged at 12,000 rpm for 2 min, and the plasma was frozen at −80° C. for further testing. A certain amount of the test substance was precisely weighed and dissolved in DMSO to obtain a stock solution with a concentration of 2 mg/mL. An appropriate amount of the stock solution of the compound was accurately pipetted and diluted with acetonitrile to prepare a standard series solution. 20 μL of each of the above standard series solution was accurately pipetted, added with 180 μL of blank plasma, and vortexed mixed to prepare plasma samples corresponding to plasma concentrations of 0.3, 1, 3, 10, 30, 100, 300, 1000, 3000 ng/mL. Two-sample analysis was performed for each concentration to establish a standard curve. 30 μL of plasma (for samples that are obtained at 5 min, 15 min, 30 min, and 1 h after intravenous administration, the plasma were diluted 10 times) was taken, added with 200 μL of a solution of internal standard propranolol in acetonitrile (50 ng/ml), and vortexed mixed. The mixture was then added with 100 μL of pure water, and vortexed and mixed again. It was centrifuged at 4000 rpm for 5 min, and the supernatant was collected for LC-MS analysis. LC-MS detection conditions were as follows. • Chromatographic column: Thermo Scientific HYPERSIL GOLD C-18 UPLC column, 100*2.1 mm, 1.7 μm. • Mobile phase: water (with 0.1% formic acid)-acetonitrile; gradient elution was performed according to the table below.
After blood drug concentrations was detected by LC-MS, WinNonlin 6.1 software was used to calculate pharmacokinetic parameters based on non-compartmental model.

human GLP-1 R = biological target: T1, human GLP-1 R (Homo sapiens, UniProt P43220); experiment: cAMP signal activation in human GLP1R cells (hGLP1R-U2OS, HTRF); type: cell-based
T1 construct: expressed in transfected cells
Description: A cell line stably expressing human GLP1 R (hGLP1R-U2OS) was used in this experiment. The cells were cultured in a growth medium (complete medium, DMEM+10% FBS+500 μg/mL G418 (Promega)) in an incubator at 37° C. and has 5% CO2 saturated humidity.
hGLP1R-U2OS was inoculated into 384-well plate with 1.0×10^4 cells/well (5 μL) (cell working solution: DMEM+0.1% BSA+1 mM IBMX (available from Bide Pharmatech Ltd.)), and was placed in an incubator at 37° C. and held for 30 min. The compounds to be tested were diluted stage-by-stage with Stimulation Buffer 1 (1×) in the kit, and the diluted compounds were added to the culture plate with 5 μL/well. They were incubated in an incubator at 37° C. for 30 min. Then, 5 μL/well of cAMP-d2 prepared with Lysis & Detection buffer and 5 μL/well of Anti CAMP-Cryptate working solution were added successively, and they were incubated at room temperature for 60 min before detection.
The ratio of signal emitted by donor to […] in each well was calculated as follows: HTRF rate=signal at 665 nm/signal at 620 nm×104, and then the HTRF rate was converted into a reaction rate (%). The concentration-response curve of each Example compound was created by a 4-parameter equation as Y=Bottom+(Top−Bottom)/(1+10^((Log IC50−X)*HillSlope)), and the half maximal (50%) effective concentration (EC50) was calculated.

[2] = biological target: T2, hERG potassium ion channel (Homo sapiens, UniProt Q12809); experiment: Effect on hERG potassium ion channel (CHO-hERG, manual patch clamp); type: cell-based
T2 construct: expressed in transfected cells
Description: A cell line CHO-hERG from ovary of Chinese hamster that stably expresses hERG potassium channel was used in this experiment. The cells were cultured in F12 complete medium containing 10% FBS, 1% antibiotics (G418), and 89 μg/mL hygromycin. The recovery medium was a F12 medium containing 10% FBS. Culture was performed at 37° C. and under 5% CO2.
The inhibitory activity of the compounds of the present invention in series gradient concentrations on the potassium channel in CHO-hERG was determined by manual patch clamp system.

T1 sequence (P43220 24-463): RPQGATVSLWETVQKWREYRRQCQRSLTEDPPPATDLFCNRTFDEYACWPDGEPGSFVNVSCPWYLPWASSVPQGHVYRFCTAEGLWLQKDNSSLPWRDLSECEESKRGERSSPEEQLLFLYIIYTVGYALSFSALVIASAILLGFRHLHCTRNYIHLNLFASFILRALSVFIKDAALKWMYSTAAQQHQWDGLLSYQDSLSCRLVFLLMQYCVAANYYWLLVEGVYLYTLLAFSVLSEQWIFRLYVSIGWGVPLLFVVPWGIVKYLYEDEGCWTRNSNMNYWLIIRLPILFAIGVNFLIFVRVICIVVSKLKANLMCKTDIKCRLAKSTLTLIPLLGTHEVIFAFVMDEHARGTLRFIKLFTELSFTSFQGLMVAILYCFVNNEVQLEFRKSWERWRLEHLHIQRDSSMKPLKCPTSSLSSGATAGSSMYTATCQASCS
T2 sequence (Q12809 whole entry): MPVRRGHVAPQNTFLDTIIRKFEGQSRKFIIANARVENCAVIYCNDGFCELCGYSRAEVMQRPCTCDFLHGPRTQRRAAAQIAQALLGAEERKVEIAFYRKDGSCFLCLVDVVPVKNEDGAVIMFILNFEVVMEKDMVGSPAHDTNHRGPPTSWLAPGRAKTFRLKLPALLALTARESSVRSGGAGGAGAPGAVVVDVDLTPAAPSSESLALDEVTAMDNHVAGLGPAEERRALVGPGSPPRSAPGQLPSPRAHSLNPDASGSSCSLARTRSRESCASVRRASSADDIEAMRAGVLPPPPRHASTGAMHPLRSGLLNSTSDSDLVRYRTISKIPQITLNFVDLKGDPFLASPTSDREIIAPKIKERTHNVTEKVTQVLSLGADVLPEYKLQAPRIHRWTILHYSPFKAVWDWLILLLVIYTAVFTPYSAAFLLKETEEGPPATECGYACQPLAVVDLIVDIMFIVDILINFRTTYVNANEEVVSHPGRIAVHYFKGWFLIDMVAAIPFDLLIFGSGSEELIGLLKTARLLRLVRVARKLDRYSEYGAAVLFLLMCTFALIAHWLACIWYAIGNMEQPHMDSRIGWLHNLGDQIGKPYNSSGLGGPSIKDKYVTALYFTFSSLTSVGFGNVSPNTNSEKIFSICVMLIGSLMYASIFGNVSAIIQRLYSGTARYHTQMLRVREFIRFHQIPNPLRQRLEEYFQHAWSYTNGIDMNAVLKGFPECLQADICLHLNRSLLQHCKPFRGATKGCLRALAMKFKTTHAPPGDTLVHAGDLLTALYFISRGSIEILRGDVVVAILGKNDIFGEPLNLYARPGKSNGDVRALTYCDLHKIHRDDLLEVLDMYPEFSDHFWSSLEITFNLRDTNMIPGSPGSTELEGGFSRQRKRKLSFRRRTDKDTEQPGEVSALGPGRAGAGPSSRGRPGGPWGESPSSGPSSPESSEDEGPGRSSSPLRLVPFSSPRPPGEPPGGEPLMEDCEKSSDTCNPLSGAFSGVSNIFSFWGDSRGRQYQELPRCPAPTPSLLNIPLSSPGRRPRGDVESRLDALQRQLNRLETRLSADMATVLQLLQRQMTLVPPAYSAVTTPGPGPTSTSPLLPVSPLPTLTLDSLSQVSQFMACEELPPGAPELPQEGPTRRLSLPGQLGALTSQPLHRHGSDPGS

## C[C@@H](c1nc2ccc(C(=O)O)nc2n1C[C@@H]1CCO1)N1CCC(c2cccc(OCc3ccc(Cl)cc3F)n2)CC1 [Example 12, 2-((S)-1-(4-(6-((4-chloro-2-fluorobenzyl)oxy)pyridin-2-yl)piperidin-1-yl)ethyl)-3-(((S)-oxetan-2-yl)methyl)-3H-imidazolo[4,5-b]pyridin-5-carboxylic acid]
[1]
  F: 168.2%
[1]; iv, 1 mg/kg, i.v
  AUC(0-t): 1.7 µg·h/mL
  Cmax: 2.25 µg/mL
  clearance: 0.587 L/h/kg
  half-life: 0.87 h
[1]; po, 5 mg/kg, p.o
  AUC(0-t): 14.3 µg·h/mL
  Cmax: 3.78 µg/mL
  half-life: 2.69 h
Human GLP-1 R
  pEC50: 8.41

## C[C@@H](c1nc2ccc(C(=O)O)cc2n1C[C@@H]1CCO1)N1CCN(c2cccc(OCc3ccc(C#N)cc3F)n2)CC1 [Example 20A, 2-((S)-1-(4-(6-((4-cyano-2-fluorobenzyl)oxy)pyridin-2-yl)piperazin-1-yl)ethyl)-1-(((S)-oxetan-2-yl)methyl)-1H-benzo[d]imidazol-6-carboxylic acid]
[1]
  F: 46.4%
[1]; iv, 1 mg/kg, i.v
  AUC(0-t): 0.539 µg·h/mL
  Cmax: 1.29 µg/mL
  clearance: 1.84 L/h/kg
  half-life: 0.31 h
[1]; po, 5 mg/kg, p.o
  AUC(0-t): 1.25 µg·h/mL
  Cmax: 0.348 µg/mL
  half-life: 1.17 h
Human GLP-1 R
  pEC50: 8.33
[2]
  pIC50: < 4.52

## C[C@@H](c1nc2ccc(C(=O)O)nc2n1C[C@@H]1CCO1)N1CCN(c2cccc(OCc3ccc(C#N)cc3F)n2)CC1 [Example 51A, 2-((S)-1-(4-(6-((4-cyano-2-fluorobenzyl)oxy)pyridin-2-yl)piperazin-1-yl)ethyl)-3-(((S)-oxetan-2-yl)methyl)-3H-imidazo[4,5-b]pyridin-5-carboxylic acid]
[1]
  F: 34.3%
[1]; iv, 1 mg/kg, i.v
  AUC(0-t): 0.613 µg·h/mL
  Cmax: 1.99 µg/mL
  clearance: 1.63 L/h/kg
  half-life: 0.71 h
[1]; po, 5 mg/kg, p.o
  AUC(0-t): 1.05 µg·h/mL
  Cmax: 0.323 µg/mL
  half-life: 1.06 h
Human GLP-1 R
  pEC50: 8.64

## C[C@@H](c1nc2ccc(C(=O)O)nc2n1C[C@@H]1CCO1)N1CCN(c2cccc(OCc3ccc(Cl)cc3F)n2)CC1 [Example 52A, 2-((S)-1-(4-(6-((4-chloro-2-fluorobenzyl)oxy)pyridin-2-yl)piperazin-1-yl)ethyl)-3-(((S)-oxetan-2-yl)methyl)-3H-imidazo[4,5-b]pyridin-5-carboxylic acid]
[1]
  F: 76.6%
[1]; iv, 1 mg/kg, i.v
  AUC(0-t): 1.13 µg·h/mL
  Cmax: 2.05 µg/mL
  clearance: 0.882 L/h/kg
  half-life: 0.95 h
[1]; po, 5 mg/kg, p.o
  AUC(0-t): 4.33 µg·h/mL
  Cmax: 1.16 µg/mL
  half-life: 2.77 h
Human GLP-1 R
  pEC50: 8.70
